# Measurements: patent US20110070186A1 (priority 2009, published 2011)
# Tested on: DU-145 cells
# Type: cell-based, human
compound,measurement,value
C=C1[C@@H](C)[C@H]2[C@H](Cc3ccccc3)NC(=O)[C@]23[C@H](OC(C)=O)/C=C/[C@@](C)(O)C(=O)[C@@H](C)C/C=C/[C@H]3[C@@H]1O [Cytochalasin-D],Effect on cell migration (in words),did not migrate
same,"Relative Wound Density at 24 Hours, Mean",3.3 ± 0.2
same,"Relative Wound Density at 24 Hours, Percent Relative to Media",4%
